This note sets out measurements from US6528528B2 (Warner-Lambert Company, priority 1997, dated 2003).

Where two headings read alike, the source gives them in different places.

The target of series [1] is T1, rabbit reticulocyte 15-LO (Oryctolagus cuniculus, UniProt P12530).
T1 construct: Fifteen-lipoxygenase was obtained from phenylhydrazine-treated rabbits and purified per the method of Rapoport; from tissue; host or cells: reticulocytes of phenylhydrazine-treated rabbits
T1 sequence (P12530 1-663): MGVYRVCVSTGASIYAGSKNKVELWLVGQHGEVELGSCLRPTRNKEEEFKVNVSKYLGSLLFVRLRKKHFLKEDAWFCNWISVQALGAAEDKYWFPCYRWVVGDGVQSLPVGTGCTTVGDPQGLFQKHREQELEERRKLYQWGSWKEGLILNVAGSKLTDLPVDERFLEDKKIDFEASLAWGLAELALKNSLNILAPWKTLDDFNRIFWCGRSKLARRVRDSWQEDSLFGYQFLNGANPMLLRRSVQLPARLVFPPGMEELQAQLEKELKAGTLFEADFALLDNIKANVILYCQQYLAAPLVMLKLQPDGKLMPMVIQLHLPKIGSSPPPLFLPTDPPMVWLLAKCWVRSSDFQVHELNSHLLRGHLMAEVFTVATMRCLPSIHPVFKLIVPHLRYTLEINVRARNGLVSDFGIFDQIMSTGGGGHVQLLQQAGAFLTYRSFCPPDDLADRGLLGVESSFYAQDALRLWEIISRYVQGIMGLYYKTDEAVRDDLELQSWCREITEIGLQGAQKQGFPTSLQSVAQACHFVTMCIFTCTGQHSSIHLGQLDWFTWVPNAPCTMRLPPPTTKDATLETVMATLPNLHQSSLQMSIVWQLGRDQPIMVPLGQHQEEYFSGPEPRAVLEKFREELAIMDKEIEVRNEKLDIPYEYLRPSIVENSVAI
Put plainly: Rabbit Reticulocyte 15-LO Assay (h15LO). Format: biochemical. The following applies: for IC50: 2U rabbit reticulocyte 15-LO, 174 μM linoleic acid, 15 minutes at 4° C. In short, it runs like this:
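Purified rabbit reticulocyte 15-LO (2U) incubated with inhibitor and 174 μM linoleic acid in PBS with 0.2% Na cholate for 15 minutes at 4° C. 13-HPODE quantified by peak area against 13-HODE standard curve; % inhibition relative to uninhibited reaction.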

[2] abbreviates: Table 1, read-out: h15LO % Inhibition at 10 μM.
[3] abbreviates: 0.25 h, Table 2, read-out: h15LO % @ 10 μM.

The IC50 is the concentration that gives 50% inhibition. A lower IC50 goes with higher potency. The melting point is the temperature, or range, at which the solid turns liquid.

With `COc1ccc(C(=O)Nc2ccc(F)cc2)cc1N` [Example 8, 3-Amino-4-methoxy-N-(4-fluorophenyl)-benzamide], the melting point lay in the range of 164 to 167 °C. Also, the concentration for half-maximal inhibition (IC50) in series [1] (Table 1) came out at 157 nM.
As to `Nc1cc(C(=O)Nc2ccccc2)ccc1F` [Example 9, 3-Amino-4-fluoro-N-phenyl-benzamide], the melting point fell in the range of 167 to 170 °C. For the same compound, the inhibition at 10 µM in series [1] (setting [2]) worked out at 38%.
Compound `CCOc1ccc(C(=O)Nc2ccccc2)cc1N` [Example 10, 3-Amino-4-ethoxy-N-phenyl-benzamide] returned a melting point of 189 to 190 °C. The inhibition at 10 µM in series [1] (setting [2]) worked out at 42%.
For the compound `COc1ccc(C(=O)Nc2cc(C)cc(C)c2)cc1N` [Example 11, 3-Amino-4-methoxy-N-(3,5-dimethylphenyl)-benzamide], the melting point is 155 to 162 °C. Further, in series [1] (Table 1), half-maximal inhibition (IC50) was put at 390 nM.
In the same order, the values of `COc1ccc(C(=O)Nc2ccc(C)c(Cl)c2)cc1N` [Example 12, 3-Amino-4-methoxy-N-(3-chloro-4-methylphenyl)-benzamide] are 153 to 157 °C and 73 nM.
With `COc1ccc(C(=O)Nc2ccc(F)cc2F)cc1N` [Example 14, 3-Amino-4-methoxy-N-(2,4-difluorophenyl)-benzamide], the melting point is 166 to 168 °C. In addition, the inhibition at 10 µM in series [1] (setting [2]) was 68%.
Take `COc1ccc(C(=O)Nc2ccc(F)c(F)c2)cc1N` [Example 15, 3-Amino-4-methoxy-N-(3,4-difluorophenyl)-benzamide]: the melting point was in the range of 171 to 172 °C. The compound also returned an IC50 in series [1] (Table 1) of 9 nM.
On to `COc1ccc(C(=O)Nc2cccc(Cl)c2)cc1N` [Example 16, 3-Amino-4-methoxy-N-(3-chlorophenyl)-benzamide], for which the melting point lay in the range of 144 to 146 °C. In series [1] (Table 1), the IC50 worked out at 79 nM.
`CCc1ccc(C(=O)Nc2ccccc2)cc1N` [Example 17, 3-Amino-4-ethyl-N-phenyl-benzamide] returned a melting point of 111 to 113 °C. For the same compound, the inhibition at 10 µM in series [1] (setting [2]) amounted to 65%.
`CCc1ccc(C(=O)Nc2ccc(Cl)c(Cl)c2)cc1N` [Example 18, 3-Amino-4-ethyl-N-(3,4-dichlorophenyl)-benzamide] showed a melting point of 115 to 117 °C. The compound also returned an IC50 in series [1] (Table 1) of 2510 nM.
For `CCc1ccc(C(=O)Nc2ccc(F)c(F)c2)cc1N` [Example 19, 3-Amino-4-ethyl-N-(3,4-difluorophenyl)-benzamide], in that order: 108 to 110 °C and 1100 nM.
For `CSc1ccc(C(=O)Nc2ccccc2)cc1N` [Example 20, 3-Amino-4-methylsulfanyl-N-phenyl-benzamide], in that order: 143 to 145 °C and 203 nM.
In the same order, the values of `COc1ccc(NC(=O)c2ccc(Cl)c(Cl)c2)cc1N` [Example 23, 3,4-Dichloro-N-(3-amino-4-methoxyphenyl)-benzamide] are 215 to 218 °C and 26 nM.
For the compound `O=C(Nc1ccccc1)c1cccc(Nc2ccccc2)c1` [Example 25, 3-Phenylamino-N-phenyl-benzamide], the melting point fell in the range of 134 to 135 °C. The compound also showed a half-inhibitory concentration (IC50) in series [1] (Table 2) of 6430 nM.
Take `COc1ccccc1Nc1cccc(C(=O)Nc2ccccc2)c1` [Example 27, 3-(2-Methoxy-phenylamino)-N-phenyl-benzamide]: the melting point is 153 to 154 °C. For the same compound, the inhibition at 10 µM in series [1] (setting [3]) was 48%.
In the case of `COc1ccccc1Nc1cc(C(=O)Nc2ccccc2)ccc1OC` [Example 29, 3-(2-Methoxy-phenylamino)-4-methoxy-N-phenyl-benzamide], the melting point fell in the range of 155 to 156 °C. The same compound came in with an IC50 in series [1] (Table 2) of more than 3000 nM.
In the same order, the values of `COc1ccc(C(=O)Nc2ccccc2)cc1Nc1cccc(Cl)c1` [Example 31, 3-(3-Chloro-phenylamino)-4-methoxy-N-phenyl-benzamide] are 168 to 170 °C and 10 nM.
For `COc1ccc(C(=O)Nc2ccccc2)cc1Nc1cccc(C)c1` [Example 32, 3-(3-Methyl-phenylamino)-4-methoxy-N-phenyl-benzamide], in that order: 160 to 161 °C and 23 nM.
For `COc1ccc(C(=O)Nc2ccccc2)cc1Nc1cccc([N+](=O)[O-])c1` [Example 33, 3-(3-Nitro-phenylamino)-4-methoxy-N-phenyl-benzamide], in that order: 220 to 221 °C and 12 nM.
On to `COc1ccc(C(=O)Nc2ccccc2)cc1Nc1ccc(C)cc1` [Example 34, 3-(4-Methyl-phenylamino)-4-methoxy-N-phenyl-benzamide], for which the melting point was in the range of 187 to 188 °C. The compound also had an IC50 in series [1] (Table 2) of 29 nM.
For `COc1ccc(C(=O)Nc2ccccc2)cc1Nc1cc(C)cc(C)c1` [Example 36, 3-(3,5-Dimethyl-phenylamino)-4-methoxy-N-phenyl-benzamide], in that order: 198 to 199 °C and 11 nM.
For `O=C(Nc1ccccc1)c1ccc(F)c(Nc2ccccc2)c1` [Example 37, 3-Phenylamino-4-fluoro-N-phenyl-benzamide], in that order: 132 to 133 °C and 2940 nM.
For `COc1ccc(C(=O)Nc2ccc(F)cc2)cc1Nc1ccccc1` [Example 39, 3-Phenylamino-4-methoxy-N-(4-fluorophenyl)-benzamide], in that order: 151 to 152 °C and 50 nM.
Compound `CCc1ccc(C(=O)Nc2ccccc2)cc1Nc1cccc(C(F)(F)F)c1` [Example 41, 4-Ethyl-3-(3-trifluoromethyl-phenylamino)-N-phenyl-benzamide] yielded a melting point of 133 to 134 °C. Further, the inhibition at 10 µM in series [1] (setting [3]) is 65%.
As for `CCOc1ccc(C(=O)Nc2ccccc2)cc1Nc1cccc(C(F)(F)F)c1` [Example 42, 4-Ethoxy-3-(3-trifluoromethyl-phenylamino)-N-phenyl-benzamide], the melting point was 184 to 185 °C. In series [1] (Table 2), inhibition was half-maximal at 410 nM (IC50).
In the same order, the values of `CSc1ccc(C(=O)Nc2ccccc2)cc1Nc1cccc(C(F)(F)F)c1` [Example 43, 4-Methylsulfanyl-3-(3-trifluoromethyl-phenylamino)-N-phenyl-benzamide] are 169 to 170 °C and 73 nM.
In the same order, the values of `COc1ccc(C(=O)Nc2ccccc2)cc1Nc1ccc(C2=NC(C)(C)CO2)cc1` [Example 44, 3-[4-(4,4-Dimethyl-4,5-dihydro-oxazol-2-yl)-phenylamino]-4-methoxy-N-phenyl-benzamide] are 221 to 222 °C and 25 nM.
Regarding `COc1ccc(C(=O)Nc2cccnc2)cc1Nc1cccc(C(F)(F)F)c1` [Example 45, 4-Methoxy-3-(3-trifluoromethyl-phenylamino)-N-(3-pyridyl)-benzamide], the melting point is 184 to 185 °C. Moreover, the IC50 in series [1] (Table 2) worked out at 440 nM.
In the same order, the values of `COc1ccc(C(=O)Nc2ccc(F)cc2)cc1Nc1cc(C)cc(C)c1` [Example 46, 4-Methoxy-3-(3,5-dimethyl-phenylamino)-N-(4-fluorophenyl)-benzamide] are 199 to 200 °C and 20 nM.
For `COc1ccc(C(=O)Nc2ccc(F)c(F)c2)cc1Nc1cccc(C(F)(F)F)c1` [Example 48, 4-Methoxy-3-(3-trifluoromethyl-phenylamino)-N-(3,4-difluorophenyl)-benzamide], in that order: 166 to 169 °C and 28 nM.
Compound `COc1ccc(C(=O)Nc2ccccc2)cc1NCc1ccccc1` [Example 50, 3-Benzylamino-4-methoxy-N-phenyl-benzamide] yielded a melting point of 164 to 165 °C. The compound also displayed an IC50 in series [1] (Table 2) of 846 nM.
Compound `COc1ccc(C(=O)Nc2ccccc2)cc1NCc1ccc(OC)c(OC)c1` [Example 52, 3-(3,4-Dimethoxy-benzylamino)-4-methoxy-N-phenyl-benzamide] yielded a melting point of 187 to 188 °C. Moreover, the inhibition at 10 µM in series [1] (setting [3]) was determined as 62%.
In the same order, the values of `O=C(Nc1ccccc1)c1cccc(Oc2ccccc2)c1` [Example 53, 3-Phenoxy-N-phenyl-benzamide] are 111 to 112 °C and 57%.
In the same order, the values of `COc1ccc(C(=O)Nc2ccccc2)cc1Oc1ccccc1` [Example 54, 3-Phenoxy-4-methoxy-N-phenyl-benzamide] are 200 to 201 °C and 60%.
In the same order, the values of `COc1ccc(C(=O)Oc2ccccc2)cc1Nc1ccccc1` [Example 55, 3-(Phenylamino)-4-methoxybenzoic Acid, Phenyl Ester] are 130 to 131 °C and 54%.
